Patent publication US20240018153A1, “BENZENESULFONAMIDE DERIVATIVES AND USES THEREOF” (2692372 ONTARIO, INC., priority 2020, published 2024)

Tests used:
BTK [1] = biological target: T1, BTK (Homo sapiens (Human), UniProt Q06187); test: HTRF KinEASE-TK kinase assay, BTK; type: biochemical; conditions: 3 h preincubation; for remaining activity at 1 µM: 1 μM compound, read-out: % BTK Remaining activity vs DMSO (1 μM, 3 h); for remaining activity at 10 µM: 10 μM compound, read-out: % BTK Remaining activity vs DMSO (10 μM, 3 h)
In short: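 BTK activity in HTRF KinEASE-TK format, buffer containing 10 mM MnCl2, 5 mM MgCl2, 1 uM ATPγS and 1 mM TCEP; 45 min reaction with biotinylated substrate and ATP.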

EGFR = EGFR (Homo sapiens (Human), UniProt P00533); test: HTRF KinEASE-TK kinase assay, EGFR; type: biochemical; conditions: 3 h preincubation; for remaining activity at 1 µM: 1 μM compound, read-out: % EGFR Remaining activity vs DMSO (1 μM, 3 h); for remaining activity at 10 µM: 10 μM compound, read-out: % EGFR Remaining activity vs DMSO (10 μM, 3 h); for IC50: dose response, read-out: EGFR Inhibition IC50
In short: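 HTRF KinEASE-TK format: EGFR pre-incubated with compound at 1 and 10 uM final (0.5% DMSO) in kinase buffer with 2 mM MnCl2, 5 mM MgCl2 and 1 mM TCEP.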

JAK3 = JAK3 (Homo sapiens (Human), UniProt P52333); test: HTRF KinEASE-TK kinase assay, JAK3; type: biochemical; conditions: for remaining activity at 1 µM: read-out: % JAK3 Remaining activity vs DMSO (1 μM, 3 h); for remaining activity at 10 µM: read-out: % JAK3 Remaining activity vs DMSO (10 μM, 3 h); for IC50: dose response
In short: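 Promega JAK3 at 0.21 nM was preincubated with inhibitor for 3 h at room temperature before biotinylated substrate and ATP were added. The reaction was stopped with EDTA detection buffer containing 31.25 nM SA-XL665 and Eu-antibody. After 60 min, the HTRF 665/620 nm emission ratio reflected substrate phosphorylation.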

BMX = BMX (Homo sapiens (Human), UniProt P51813); test: HTRF KinEASE-TK kinase assay, BMX; type: biochemical; conditions: for remaining activity at 1 µM: 1 uM compound; for remaining activity at 1 µM / remaining activity at 10 µM: 3 h preincubation; for remaining activity at 10 µM: 10 uM compound; for IC50: dose response
In short: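 Purchased BMX (0.333 ng/ul, 3.03 nM) was preincubated with or without inhibitor for 3 h at room temperature, then biotinylated substrate and ATP were added. Reactions were stopped with EDTA-containing buffer holding 31.25 nM SA-XL665 and Eu-antibody, and after 60 min phosphorylation was read as the HTRF 665/620 nm emission ratio.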

FGFR4 = FGFR4 (Homo sapiens (Human), UniProt P22455); test: HTRF KinEASE-TK kinase assay, FGFR4; type: biochemical; conditions: for remaining activity at 1 µM: read-out: % FGFR4 Remaining activity vs DMSO (1 μM, 3 h); for remaining activity at 10 µM: read-out: % FGFR4 Remaining activity vs DMSO (10 μM, 3 h)
In short: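 Promega FGFR4 at 0.333 ng/ul (5.12 nM) preincubated with or without inhibitor for 3 h at room temperature, then reaction started with biotinylated substrate and ATP. Stopped with EDTA detection buffer containing 31.25 nM SA-XL665 and Eu-antibody; after 60 min, HTRF 665/620 nm ratio read as substrate phosphorylation.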

BTK [2] = biological target: T1, BTK; test: Ramos RA1 cell lysis and immunoassay, phospho-BTK (Y223) inhibition; type: cell-based; set-up: key: X: BTK bound and autophosphoration of BTK inhibited in cells; conditions: RAMOS cells, compound concentration 1 μM
Experimental: Ramos RA 1 cells (ATCC) were cultured in RPMI-1640 media (Wisent) supplemented with 10% heat-inactivated FBS and 1% penicillin/streptomycin. Cells were seeded in 6-well plates at 1.71×10^6 cells/well and incubated at 37° C., 5% CO2 for 16 hours. Cells were treated with compound at the indicated concentrations or DMSO alone and incubated at 37° C., 5% CO2 for 24 hours. Cell suspensions were centrifugated at 1,400-1,600 RPM for 5 minutes at room temperature and supernatants were discarded. Cell pellets were resuspended with 1× RIPA buffer (Millipore) and incubated on ice for 15 minutes. Protein lysates were extracted by centrifugating at 20,000 RPM for 20 minutes at 4° C. Proteins were separated and total BTK protein levels were quantified by Simple Western Immunoassay (ProteinSimple) using the 12-230 kDa Jess Separation Module according to the manufacturer's protocol, using a protein concentration of 0.25 μg/μl and antibodies targeting BTK (clone #D3H5, Cell Signalling) and β-Actin (clone #AC-15, Santa Cruz) diluted to 1:400 and 1:10, respectively, where the latter was used as a loading control. An equal ratio of rabbit and mouse HRP-conjugated secondary antibodies was used for detection. BTK protein levels were quantified relative to S-Actin loading levels and subsequently normalized to the DMSO control. Phosphorylated BTK levels were quantified using the Protein Normalization Assay Module for Jess (ProteinSimple) according to the manufacturer's protocol, using a protein concentration of 1.5 μg/μl and an antibody targeting pBTK (Y223) (Cell Signalling) diluted to 1:50. Phosphorylated BTK levels were quantified relative to the Protein Normalization Reagent and subsequently normalized to the DMSO control.

RIPK2 = RIPK2 (Homo sapiens (Human), UniProt O43353); test: In vitro RIPK2 inhibition; type: biochemical; conditions: for remaining activity at 1 µM: read-out: % RIPK2 Remaining activity vs DMSO (1 μM, 3 h); for remaining activity at 10 µM: read-out: % RIPK2 Remaining activity vs DMSO (10 μM, 3 h)
Sequence of RIPK2 (O43353 whole entry, species assumed): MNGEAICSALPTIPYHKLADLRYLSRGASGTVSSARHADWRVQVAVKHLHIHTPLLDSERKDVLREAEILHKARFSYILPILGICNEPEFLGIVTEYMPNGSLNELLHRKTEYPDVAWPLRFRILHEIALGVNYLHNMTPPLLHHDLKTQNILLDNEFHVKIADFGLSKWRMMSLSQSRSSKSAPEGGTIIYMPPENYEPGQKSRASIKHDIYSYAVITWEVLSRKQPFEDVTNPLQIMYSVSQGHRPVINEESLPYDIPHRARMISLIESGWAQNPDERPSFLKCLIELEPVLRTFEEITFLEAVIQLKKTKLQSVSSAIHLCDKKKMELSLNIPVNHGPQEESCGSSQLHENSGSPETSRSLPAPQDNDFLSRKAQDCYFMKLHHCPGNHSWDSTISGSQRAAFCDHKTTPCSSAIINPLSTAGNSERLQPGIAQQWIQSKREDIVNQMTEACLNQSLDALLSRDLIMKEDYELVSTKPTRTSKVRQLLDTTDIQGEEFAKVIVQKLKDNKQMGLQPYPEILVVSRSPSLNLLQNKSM

Sequence of JAK3 (P52333 781-1124): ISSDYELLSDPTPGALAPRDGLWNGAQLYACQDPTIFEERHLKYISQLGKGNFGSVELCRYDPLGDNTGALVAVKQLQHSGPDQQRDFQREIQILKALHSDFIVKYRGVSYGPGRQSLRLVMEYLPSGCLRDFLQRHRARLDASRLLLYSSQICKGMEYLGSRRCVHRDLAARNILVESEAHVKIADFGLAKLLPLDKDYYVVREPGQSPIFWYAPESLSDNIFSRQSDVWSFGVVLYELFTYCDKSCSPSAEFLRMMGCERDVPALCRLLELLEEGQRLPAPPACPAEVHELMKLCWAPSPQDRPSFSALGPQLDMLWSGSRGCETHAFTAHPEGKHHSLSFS
Sequence of EGFR (P00533 25-1210): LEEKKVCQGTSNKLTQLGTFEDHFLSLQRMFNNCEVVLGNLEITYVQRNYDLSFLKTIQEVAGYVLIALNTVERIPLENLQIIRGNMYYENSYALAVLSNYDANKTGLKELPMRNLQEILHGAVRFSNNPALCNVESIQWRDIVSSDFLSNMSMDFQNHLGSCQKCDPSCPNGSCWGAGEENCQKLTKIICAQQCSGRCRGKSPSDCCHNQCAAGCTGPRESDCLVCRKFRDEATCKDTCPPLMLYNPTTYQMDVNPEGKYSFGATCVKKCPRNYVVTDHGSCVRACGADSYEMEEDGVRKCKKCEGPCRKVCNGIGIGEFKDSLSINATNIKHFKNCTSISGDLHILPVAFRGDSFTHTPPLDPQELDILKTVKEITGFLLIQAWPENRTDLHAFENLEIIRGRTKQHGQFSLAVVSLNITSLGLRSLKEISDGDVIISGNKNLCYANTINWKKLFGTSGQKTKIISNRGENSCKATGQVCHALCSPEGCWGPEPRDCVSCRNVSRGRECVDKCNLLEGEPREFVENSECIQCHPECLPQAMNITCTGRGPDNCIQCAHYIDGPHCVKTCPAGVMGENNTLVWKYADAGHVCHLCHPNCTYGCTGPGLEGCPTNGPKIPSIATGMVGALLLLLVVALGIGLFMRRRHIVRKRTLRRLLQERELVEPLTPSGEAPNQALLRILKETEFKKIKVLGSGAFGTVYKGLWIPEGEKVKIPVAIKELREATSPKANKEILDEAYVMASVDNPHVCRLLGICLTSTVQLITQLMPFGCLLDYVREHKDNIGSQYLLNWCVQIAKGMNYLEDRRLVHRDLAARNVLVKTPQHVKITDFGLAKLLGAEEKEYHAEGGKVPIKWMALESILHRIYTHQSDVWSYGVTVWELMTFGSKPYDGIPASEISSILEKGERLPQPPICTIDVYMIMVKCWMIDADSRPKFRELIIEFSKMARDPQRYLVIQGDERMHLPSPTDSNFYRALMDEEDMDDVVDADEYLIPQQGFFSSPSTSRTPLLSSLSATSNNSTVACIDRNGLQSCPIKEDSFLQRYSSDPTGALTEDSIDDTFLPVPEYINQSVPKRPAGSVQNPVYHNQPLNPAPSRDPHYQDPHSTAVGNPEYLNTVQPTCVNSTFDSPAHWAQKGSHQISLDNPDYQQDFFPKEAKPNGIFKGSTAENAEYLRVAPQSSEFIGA
T1 sequence (Q06187 whole entry): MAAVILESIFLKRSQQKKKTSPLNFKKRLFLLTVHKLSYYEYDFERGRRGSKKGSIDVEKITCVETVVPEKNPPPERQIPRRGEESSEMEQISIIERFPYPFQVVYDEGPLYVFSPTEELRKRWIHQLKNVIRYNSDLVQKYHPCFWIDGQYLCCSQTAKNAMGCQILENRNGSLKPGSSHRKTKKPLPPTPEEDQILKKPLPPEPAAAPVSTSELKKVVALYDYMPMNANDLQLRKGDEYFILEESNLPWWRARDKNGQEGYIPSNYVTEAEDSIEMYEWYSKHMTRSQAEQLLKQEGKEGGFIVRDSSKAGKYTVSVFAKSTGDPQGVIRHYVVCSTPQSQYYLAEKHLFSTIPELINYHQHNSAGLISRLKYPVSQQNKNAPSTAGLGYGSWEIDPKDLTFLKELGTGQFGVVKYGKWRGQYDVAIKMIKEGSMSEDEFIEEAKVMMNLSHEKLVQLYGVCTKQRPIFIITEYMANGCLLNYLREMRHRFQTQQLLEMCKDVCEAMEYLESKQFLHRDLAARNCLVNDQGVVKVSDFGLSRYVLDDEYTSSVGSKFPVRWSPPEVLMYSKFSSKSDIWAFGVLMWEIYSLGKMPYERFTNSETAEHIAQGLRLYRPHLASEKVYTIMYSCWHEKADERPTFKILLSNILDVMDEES
Sequence of FGFR4 (P22455 22-802): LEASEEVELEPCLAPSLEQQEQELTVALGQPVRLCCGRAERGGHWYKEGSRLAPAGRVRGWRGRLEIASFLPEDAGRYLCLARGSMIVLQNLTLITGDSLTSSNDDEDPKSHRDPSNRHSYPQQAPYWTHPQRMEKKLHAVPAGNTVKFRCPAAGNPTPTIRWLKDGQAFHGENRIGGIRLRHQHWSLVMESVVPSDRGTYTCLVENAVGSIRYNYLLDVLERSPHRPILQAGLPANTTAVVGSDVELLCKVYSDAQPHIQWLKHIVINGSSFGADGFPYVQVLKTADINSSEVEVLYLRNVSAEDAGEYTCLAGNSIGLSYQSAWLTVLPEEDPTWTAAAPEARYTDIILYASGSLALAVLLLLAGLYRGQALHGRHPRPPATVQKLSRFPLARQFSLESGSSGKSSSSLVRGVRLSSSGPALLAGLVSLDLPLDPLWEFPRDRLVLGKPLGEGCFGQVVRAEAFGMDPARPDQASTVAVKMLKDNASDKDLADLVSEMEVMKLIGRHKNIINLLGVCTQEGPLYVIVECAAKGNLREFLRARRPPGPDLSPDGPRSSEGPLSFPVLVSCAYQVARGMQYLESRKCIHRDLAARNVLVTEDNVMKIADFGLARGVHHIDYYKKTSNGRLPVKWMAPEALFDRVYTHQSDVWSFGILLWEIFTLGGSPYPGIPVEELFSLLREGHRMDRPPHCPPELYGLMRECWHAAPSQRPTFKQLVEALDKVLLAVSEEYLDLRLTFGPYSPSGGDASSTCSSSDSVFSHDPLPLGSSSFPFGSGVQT
Sequence of BMX (P51813 whole entry): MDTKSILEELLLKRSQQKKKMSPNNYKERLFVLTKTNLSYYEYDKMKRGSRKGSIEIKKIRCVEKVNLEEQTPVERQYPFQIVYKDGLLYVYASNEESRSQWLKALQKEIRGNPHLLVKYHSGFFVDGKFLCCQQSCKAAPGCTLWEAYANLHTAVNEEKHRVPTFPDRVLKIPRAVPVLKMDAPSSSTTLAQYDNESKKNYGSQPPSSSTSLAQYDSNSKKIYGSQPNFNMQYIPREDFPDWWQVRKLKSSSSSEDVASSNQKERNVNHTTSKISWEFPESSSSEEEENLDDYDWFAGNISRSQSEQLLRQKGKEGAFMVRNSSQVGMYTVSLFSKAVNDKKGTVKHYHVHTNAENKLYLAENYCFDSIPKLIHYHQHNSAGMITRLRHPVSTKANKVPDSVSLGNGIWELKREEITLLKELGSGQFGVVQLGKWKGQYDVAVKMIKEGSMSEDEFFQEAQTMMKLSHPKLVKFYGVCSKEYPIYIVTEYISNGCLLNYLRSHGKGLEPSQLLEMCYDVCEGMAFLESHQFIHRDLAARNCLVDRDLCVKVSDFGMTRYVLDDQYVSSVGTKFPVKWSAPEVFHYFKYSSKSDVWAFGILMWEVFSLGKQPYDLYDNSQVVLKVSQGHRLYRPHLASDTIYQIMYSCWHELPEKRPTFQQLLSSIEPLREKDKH

| SMILES | remaining activity at 1 µM (BTK [1]) | remaining activity at 10 µM (BTK [1]) | remaining activity at 1 µM (EGFR) | remaining activity at 10 µM (EGFR) | IC50 (EGFR) | remaining activity at 1 µM (JAK3) | remaining activity at 10 µM (JAK3) | remaining activity at 1 µM (BMX) | remaining activity at 10 µM (BMX) | remaining activity at 1 µM (FGFR4) | remaining activity at 10 µM (FGFR4) | pBTK inhibition (RAMOS, 24 h) (BTK [2]) | remaining activity at 1 µM (RIPK2) | remaining activity at 10 µM (RIPK2) | IC50 (JAK3) | IC50 (BMX) | IC50 (BTK [1]; dose response, read-out: BTK Inhibition IC50) |
| --- | --- | --- | --- | --- | --- | --- | --- | --- | --- | --- | --- | --- | --- | --- | --- | --- | --- |
| C[S+]([O-])c1c(F)c(F)c(F)c(F)c1Nc1cc2c(Nc3ccc(F)c(Cl)c3)ncnc2cc1O[C@H]1CCOC1 (stereo partly drawn) [Compound I-4, N^4-(3-chloro-4-fluorophenyl)-N^6-(2,3,4,5-tetrafluoro-6-(methylsulfinyl)phenyl)-7-(((S)-tetrahydrofuran-3-yl)oxy)quinazoline-4,6-diamine] | > 90% | < 50% | < 50% | < 50% | < 1000 nM | > 90% | > 90% | > 90% | > 90% | > 90% | > 90% |  |  |  |  |  |  |
| CS(=O)(=O)c1c(F)c(F)c(F)c(F)c1C(=O)Nc1cc2c(Nc3ccc(F)c(Cl)c3)ncnc2cc1O[C@H]1CCOC1 [Compound I-5, (S)—N-(4-((3-chloro-4-fluorophenyl)amino)-7-((tetrahydrofuran-3-yl)oxy)quinazolin-6-yl)-2,3,4,5-tetrafluoro-6-(methylsulfonyl)benzamide] | < 50% | < 50% | < 50% | < 50% | < 1000 nM | 50 to 90% | < 50% | 50 to 90% | < 50% | > 90% | > 90% | X |  |  |  |  |  |
| CN(C)S(=O)(=O)c1c(F)c(F)c(F)c(F)c1C(=O)NCCNc1ncnc2[nH]ccc12 [Compound I-47, N-(2-((7H-pyrrolo[2,3-d]pyrimidin-4-yl)amino)ethyl)-2-(N,N-dimethylsulfamoyl)-3,4,5,6-tetrafluorobenzamide] | < 50% | < 50% | > 90% | > 90% |  | < 50% | < 50% | < 50% | < 50% | 50 to 90% | 50 to 90% |  | < 50% | < 50% | < 1000 nM | < 1000 nM |  |
| COCCOc1ccc(Nc2ncc(F)c(Nc3cccc(NC(=O)c4c(F)c(F)c(F)c(F)c4[S@+](C)[O-])c3)n2)cc1 (stereo in doubt) [Compound I-62, 2,3,4,5-tetrafluoro-N-(3-((5-fluoro-2-((4-(2-methoxyethoxy)phenyl)amino)pyrimidin-4-yl)amino)phenyl)-6-(methylsulfinyl)benzamide] | < 50% | < 50% | > 90% | 50 to 90% |  | > 90% | < 50% | < 50% | < 50% | < 50% | < 50% | X |  |  |  |  |  |
| COCCOc1ccc(Nc2ncc(F)c(Nc3cccc(Nc4c(F)c(F)c(F)c(F)c4[S@+](C)[O-])c3)n2)cc1 (stereo in doubt) [Compound I-63, 5-fluoro-N^2-(4-(2-methoxyethoxy)phenyl)-N^4-(3-((2,3,4,5-tetrafluoro-6-(methylsulfinyl)phenyl)amino)phenyl)pyrimidine-2,4-diamine] | < 50% | 50 to 90% | > 90% | > 90% |  | > 90% | 50 to 90% | < 50% | < 50% | > 90% | > 90% | X |  |  |  |  |  |
| CS(=O)(=O)c1c(F)c(F)c(F)c(F)c1CNCCNc1ncnc2[nH]ccc12 [Compound I-50, N^1-(7H-pyrrolo[2,3-d]pyrimidin-4-yl)-N2-(2,3,4,5-tetrafluoro-6-(methylsulfonyl)benzyl) ethane-1,2-diamine] | < 50% | < 50% | > 90% | 50 to 90% |  | < 50% | < 50% | < 50% | < 50% | > 90% | 50 to 90% | X |  |  | > 1000 nM | < 1000 nM | < 1000 nM |
| COCCOc1ccc(Nc2ncc(F)c(Nc3cccc(Nc4c(F)c(F)c(F)c(F)c4S(C)(=O)=O)c3)n2)cc1 [Compound I-64, 5-fluoro-N^2-(4-(2-methoxyethoxy)phenyl)-N^4-(3-((2,3,4,5-tetrafluoro-6-(methylsulfonyl)phenyl)amino)phenyl)pyrimidine-2,4-diamine] | < 50% | < 50% | > 90% | > 90% |  | 50 to 90% | < 50% | < 50% | < 50% | < 50% | < 50% | X |  |  |  |  |  |
| CS(=O)(=O)c1c(F)c(F)c(F)c(F)c1Nc1cc2c(Nc3ccc(F)c(Cl)c3)ncnc2cc1O[C@H]1CCOC1 [Compound I-2, (S)—N^4-(3-chloro-4-fluorophenyl)-N^6-(2,3,4,5-tetrafluoro-6-(methylsulfonyl)phenyl)-7-((tetrahydrofuran-3-yl)oxy)quinazoline-4,6-diamine] | > 90% | 50 to 90% | < 50% | < 50% | < 1000 nM | 50 to 90% | < 50% | 50 to 90% | > 90% | > 90% | 50 to 90% |  |  |  |  |  |  |
| NS(=O)(=O)c1c(F)c(F)c(F)c(F)c1C(=O)NCCNc1ncnc2[nH]ccc12 [Compound I-48] | < 50% | < 50% | > 90% | > 90% |  | 50 to 90% | < 50% | < 50% | < 50% | > 90% | 50 to 90% |  | < 50% | < 50% |  | < 1000 nM |  |
